Values quoted from earlier work in patent publication US20130237424A1 (Cosmo Oil Co., LTD., priority 2010, published 2013).

System: plants
Settings: given with being dissolved in a solution

## NCC(=O)CCC(=O)O [5-aminolevulinic acid]
  duration of growth promoting effect: about 2 weeks
